Test results from US12522612B2, “PDE4 inhibitors, pharmaceutical compositions, and therapeutic applications” (BioTheryX, Inc., priority 2019, dated 2026).

Test system: TNF-α
Assay: Cell-based TNF-α inhibition assay in LPS-induced PBMCs (Meso Scale)
Conditions: PBMC, PBMCs pretreated 1 h, LPS 100 ng/mL 18-24 h, relative to stimulated DMSO control; for inhibition at 0.1 µM: compound concentration 0.1 μM; for inhibition at 1 µM: compound concentration 1 μM
Method: Frozen primary blood mononuclear cells (PBMCs) were quick thawed, washed once with RPMI 1640 media supplemented with 10% fetal bovine serum, 1% penicillin, and 1% streptomycin, and plated in a 96 well plate at 200,000 cells per well. The cells were pretreated with DMSO only as a control or a compound for 1 h, and then induced with LPS (lipopolysaccharide) (100 ng/mL) for 18-24 h. The supernatant was analyzed for TNF-α using the Meso Scale assay. Compound activity was determined as a percentage of the stimulated DMSO control. The results are summarized in Table 1, where A represents a percent inhibition value ≥60%; B represents a percent inhibition value <60% and ≥40%; C represents a percent inhibition value <40% and >20%; and D represents a single percent inhibition value <20%.

SMILES | inhibition at 0.1 µM [%] | inhibition at 1 µM [%]
CCOc1cc([C@@H](CS(C)(=O)=O)N2Cc3c(csc3NC(=O)C(F)(F)F)C2=O)ccc1OC [Compound A1, (S)—N-(5-(1-(3-ethoxy-4-methoxyphenyl)-2-(methylsulfonyl)ethyl)-4-oxo-5,6-dihydro-4H-thieno[3,4-c]pyrrol-1-yl)-2,2,2-trifluoroacetamide] | < 20 | 40 to 60
CCOc1cc([C@@H](CS(C)(=O)=O)N2Cc3c(NC(=O)COC)csc3C2=O)ccc1OC [Compound A2, (S)—N-(5-(1-(3-ethoxy-4-methoxyphenyl)-2-(methylsulfonyl)ethyl)-6-oxo-5,6-dihydro-4H-thieno[2,3-c]pyrrol-3-yl)-2-methoxyacetamide] | 20 to 40 | 20 to 40
CCOc1cc([C@@H](CS(C)(=O)=O)N2Cc3c(NC(=O)C4CC4)csc3C2=O)ccc1OC [Compound A3, (S)—N-(5-(1-(3-ethoxy-4-methoxyphenyl)-2-(methylsulfonyl)ethyl)-6-oxo-5,6-dihydro-4H-thieno[2,3-c]pyrrol-3-yl)cyclopropanecarboxamide] | 20 to 40 | 20 to 40
COc1ccc([C@@H](CS(C)(=O)=O)N2C(=O)c3csc(NC(C)=O)c3C2=O)cc1OC1CC1 [Compound A4, (S)—N-(5-(1-(3-cyclopropoxy-4-methoxyphenyl)-2-(methylsulfonyl)ethyl)-4,6-dioxo-5,6-dihydro-4H-thieno[3,4-c]pyrrol-1-yl)acetamide] | 40 to 60 | ≥ 60
COc1ccc([C@H](CS(C)(=O)=O)N2C(=O)c3csc(NC(C)=O)c3C2=O)cc1OC1CC1 [Compound A5, (R)—N-(5-(1-(3-cyclopropoxy-4-methoxyphenyl)-2-(methylsulfonyl)ethyl)-4,6-dioxo-5,6-dihydro-4H-thieno[3,4-c]pyrrol-1-yl)acetamide] | < 20 | 20 to 40
CCOc1cc([C@@H](CS(=O)(=O)C2CC2)N2C(=O)c3csc(NC(C)=O)c3C2=O)ccc1OC [Compound A6, (S)—N-(5-(2-(cyclopropylsulfonyl)-1-(3-ethoxy-4-methoxyphenyl)ethyl)-4,6-dioxo-5,6-dihydro-4H-thieno[3,4-c]pyrrol-1-yl)acetamide] | < 20 | 20 to 40
CCOc1cc([C@@H](CS(=O)(=O)C2CC2)N2C(=O)c3csc(NC(=O)C(F)(F)F)c3C2=O)ccc1OC [Compound A7, (S)—N-(5-(2-(cyclopropylsulfonyl)-1-(3-ethoxy-4-methoxyphenyl)ethyl)-4,6-dioxo-5,6-dihydro-4H-thieno[3,4-c]pyrrol-1-yl)-2,2,2-trifluoroacetamide] | < 20 | < 20
CCOc1cc([C@H](CS(=O)(=O)C2CC2)N2C(=O)c3csc(NC(=O)C(F)(F)F)c3C2=O)ccc1OC [Compound A8, (R)—N-(5-(2-(cyclopropylsulfonyl)-1-(3-ethoxy-4-methoxyphenyl)ethyl)-4,6-dioxo-5,6-dihydro-4H-thieno[3,4-c]pyrrol-1-yl)-2,2,2-trifluoroacetamide] | < 20 | < 20
CCOc1cc([C@H](CS(=O)(=O)C2CC2)N2C(=O)c3csc(NC(=O)COC)c3C2=O)ccc1OC [Compound A9, (R)—N-(5-(2-(cyclopropylsulfonyl)-1-(3-ethoxy-4-methoxyphenyl)ethyl)-4,6-dioxo-5,6-dihydro-4H-thieno[3,4-c]pyrrol-1-yl)-2-methoxyacetamide] | 40 to 60 | ≥ 60
CCOc1cc([C@H](CS(=O)(=O)C2CC2)N2C(=O)c3csc(NC(C)=O)c3C2=O)ccc1OC [Compound A10, (R)—N-(5-(2-(cyclopropylsulfonyl)-1-(3-ethoxy-4-methoxyphenyl)ethyl)-4,6-dioxo-5,6-dihydro-4H-thieno[3,4-c]pyrrol-1-yl)acetamide] | < 20 | ≥ 60
